{"source": "patent US6455592B1", "about": "“Use of hydrophilic penetration agents in dermatological compositions for the treatment of onychomycoses, and corresponding compositions” (Novartis AG, priority 1991, dated 2002)", "origin": "cited, not measured here", "details": "oral treatment with 250 mg/day over 8 weeks", "note": "Structures can show the parent of a compound that is named as a salt."}
{"smiles": "CN(C/C=C/C#CC(C)(C)C)Cc1cccc2ccccc12", "note": "[terbinafine-HCl, Terbinafine hydrochloride]", "values": [{"measurement": "concentration of terbinafine-HCl in the nails", "result": "0.4±0.15 ng of terbinafine-HCl per mg of nail material"}]}
